Measurements: patent US20210070747A1, “2(1H)-QUINOLINONE DERIVATIVE” (priority 2017, published 2021)
pIC50: −log10 of the molar value. Values after ≈ are worked out from the molar mass of the structure shown. Where a name gives a salt, the structure may show the parent alone. Read-outs that look alike come from different tables or passages of the source.

Columns and labels:
E. coli DNA gyrase = biological target: T1, E. coli DNA gyrase (Escherichia coli, UniProt P0AES6); experiment: Test for evaluating the activity of inhibiting E. coli DNA gyrase enzyme (Method 1, supercoiling, Inspiralis enzyme); type: biochemical
T1 construct: made in house; host or cells: E. coli BL21 (DE3)
Method: Test Example 1-1 Test for Evaluating the Activity of Inhibiting E. coli DNA Gyrase Enzyme (Method 1)
The enzymatic activity of E. coli DNA gyrase was measured by a method comprising reacting DNA gyrase and its substrate, relaxed pBR322 (Inspiralis), in the presence of ATP and detecting the post-reaction supercoiled pBR322/relaxed pBR322 ratio with H19 (Profoldin).
Specifically, to 1 ng/μL of relaxed pBR322, E. coli DNA gyrase enzyme (Inspiralis) was added at a final concentration of 0.006 U/μL and the mixture was incubated for 60 minutes at room temperature. This reaction was carried out in 20 mmol/L tris-HCl buffered solution (pH 8.0) comprising 0.5 mmol/L ATP, 0.005% bridge 35, 35 mmol/L ammonium acetate, 8 mmol/L magnesium chloride, 4.6% glycerol, and 1 mmol/L dithiothreitol. To the reaction mixture, H19 was added to bring the reaction to an end; thereafter, the supercoiled pBR322/relaxed pBR322 ratio was detected at excitation wavelength/emission wavelength=485 nm/535 nm. An inhibition curve was obtained by allowing the analyte compound to be present at varying concentrations during the reaction described above. […] The test results of interest are shown in [Table 20-1] and [Table 20-2].

E. Coli ATCC 25922 = experiment: Test for evaluating antibacterial activity (E. coli), broth microdilution MIC; type: cell-based; settings: Escherichia coli, ATCC25922; 35° C., 18 hours, cation-adjusted Mueller-Hinton medium
In short: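 Broth microdilution per modified CLSI method in cation-adjusted Mueller-Hinton medium. Inoculum from overnight heart infusion agar growth, McFarland 0.5 suspension diluted 10-fold; incubation 35° C for 18 hours. MIC taken as lowest drug concentration with no visible growth.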

[1] = Method 1, read-out: E. Coli Gyrase supercoiling IC50

| SMILES | pIC50 (E. coli DNA gyrase) | MIC (E. Coli ATCC 25922) [µg/mL] | pIC50 (E. coli DNA gyrase; [1]) |
| --- | --- | --- | --- |
| CNc1cccc2cc(C(=O)Nc3ccc(C(=O)O)cc3OCCCN)c(=O)[nH]c12.O=CO [Example 48, 3-(3-aminopropoxy)-4-{[8-(methylamino)-2-oxo-1,2-dihydroquinoline-3-carbonyl]amino} benzoic acid-formate] | 6.54 | > 16 |  |
| CNc1cccc2cc(C(=O)Nc3ccc(C(=O)NCC4CCNCC4)cc3)c(=O)[nH]c12.O=CO [Example 47, 8-(methylamino)-2-oxo-N-(4-{[(piperidine-4-yl)methyl]carbamoyl}phenyl)-1,2-dihydroquinoline-3-carboxamide-formate] | 7.97 | > 32 |  |
| CNc1cccc2cc(C(=O)Nc3ccc(C(=O)O)cc3OCCN3CCN(C)CC3)c(=O)[nH]c12.Cl [Example 44, 4-{[8-(methylamino)-2-oxo-1,2-dihydroquinoline-3-carbonyl]amino}-3-[2-(4-methylpiperazine-1-yl)ethoxy] benzoic acid-hydrochloride] | 6.43 | > 16 |  |
| CNc1cc(F)cc2cc(C(=O)Nc3cnc(C(=O)OC)nc3)c(=O)[nH]c12 [Example 63, methyl 5-{[6-fluoro-8-(methylamino)-2-oxo-1,2-dihydroquinoline-3-carbonyl]amino}pyrimidine-2-carboxylate] | 8.84 | > 16 |  |
| CNc1cc(F)cc2cc(C(=O)Nc3cnc(OCCN4CCOCC4)nc3)c(=O)[nH]c12 [Example 80, 6-fluoro-8-(methylamino)-N-{2-[2-(morpholine-4-yl)ethoxy]pyrimidine-5-yl}-2-oxo-1,2-dihydroquinoline-3-carboxamide] |  | > 16 | 8.60 |
| CNc1cccc2cc(C(=O)Nc3ccccc3)c(=O)[nH]c12 [Example 11, 8-(methylamino)-2-oxo-N-phenyl-1,2-dihydroquinoline-3-carboxamide] |  | > 64 | 6.61 |
| CNc1cccc2cc(C(=O)NCc3csc(N)n3)c(=O)[nH]c12.Cl [Example 31, N-[(2-amino-1,3-thiazole-4-yl)methyl]-8-(methylamino)-2-oxo-1,2-dihydroquinoline-3-carboxamide-hydrochloride] | 6.49 | > 16 |  |
| CNc1cc(F)cc2cc(C(=O)Nc3ccc(C(=O)NCC4CCN(CCN)CC4)cc3)c(=O)[nH]c12 [Example 57, N-(4-({[1-(2-aminoethyl)piperidine-4-yl]methyl}carbamoyl)phenyl]-6-fluoro-8-(methylamino)-2-oxo-1,2-dihydroquinoline-3-carboxamide-dihydrochloride] |  | > 16 | 8.44 |
| CNc1cc(F)cc2cc(C(=O)Nc3cnccc3C)c(=O)[nH]c12 [Example 73, 6-fluoro-8-(methylamino)-N-(4-methylpyridine-3-yl)-2-oxo-1,2-dihydroquinoline-3-carboxamide] |  | > 8 | 7.64 |
| CNc1cc(F)cc2cc(C(=O)Nc3cnc(N4CCNCC4)nc3)c(=O)[nH]c12.Cl [Example 55, 6-Fluoro-8-(methylamino)-2-oxo-N-[2-(piperazin-1-yl)pyrimidin-5-yl]-1,2-dihydroquinoline-3-carboxamide-hydrochloride] | 7.83 | > 16 |  |
| CNc1cccc2cc(C(=O)Nc3cnc(NC(=O)OC(C)(C)C)s3)c(=O)[nH]c12 [Example 24, tert-butyl(5-{[8-(methylamino)-2-oxo-1,2-dihydroquinoline-3-carbonyl]amino}-1,3-thiazole-2-yl)carbamate] |  | > 32 | 6.19 |
| CNc1cccc2cc(C(=O)NC3CCN(c4ncc(C(=O)O)s4)C3)c(=O)[nH]c12 (stereo not shown) [Example 9, 2-(3-{[8-(methylamino)-2-oxo-1,2-dihydroquinoline-3-carbonyl]amino}pyrrolidine-1-yl)-1,3-thiazole-5-carboxylic acid] |  | > 64 | 7.29 |
| CNc1cccc2cc(C(=O)NCCc3cccnc3)c(=O)[nH]c12 [Example 30, 8-(methylamino)-2-oxo-N-[2-(pyridine-3-yl)ethyl]-1,2-dihydroquinoline-3-carboxamide] |  | > 16 | 6.67 |
| CNc1cccc2cc(C(=O)NCc3csc(NC(=O)OC(C)(C)C)n3)c(=O)[nH]c12 [Example 27, tert-butyl[4-({[8-(methylamino)-2-oxo-1,2-dihydroquinoline-3-carbonyl]amino}methyl)-1,3-thiazole-2-yl]carbamate] |  | > 8 | 6.59 |
| CNc1cc(F)cc2cc(C(=O)Nc3cnc(NCCN)nc3)c(=O)[nH]c12.O=CO [Example 59, N-{2-[(2-aminoethyl)amino]pyrimidine-5-yl}-6-fluoro-8-(methylamino)-2-oxo-1,2-dihydroquinoline-3-carboxamide-formate] | 7.83 | > 2 |  |
| CNc1cccc2cc(C(=O)Nc3cnc(N4CCC(N5CCN(CCO)CC5)CC4)nc3)c(=O)[nH]c12 [Example 42, N-(2-{4-[4-(2-hydroxyethyl)piperazine-1-yl]piperidine-1-yl}pyrimidine-5-yl)-8-(methylamino)-2-oxo-1,2-dihydroquinoline-3-carboxamide] |  | > 64 | 7.13 |
| CNc1cccc2cc(C(=O)Nc3ccc(C(=O)NCCC[C@H](N)C(=O)O)cc3)c(=O)[nH]c12 [Example 49, N5-(4-{[8-(methylamino)-2-oxo-1,2-dihydroquinoline-3-carbonyl]amino}benzoyl)-L-ornithine] |  | > 8 | 7.69 |
| CNc1cccc2cc(C(=O)Nc3ccc(C(=O)N4CCOCC4)cc3)c(=O)[nH]c12 [Example 43, 8-(methylamino)-N-[4-(morpholine-4-catbonyl)phenyl]-2-oxo-1,2-dihydroquinoline-3-carboxamide] |  | > 32 | 6.76 |
| CNc1cccc2cc(C(=O)Nc3cnc(N4CCC(N)CC4)nc3)c(=O)[nH]c12.O=CO [Example 45, N-[2-(4-aminopiperidine-1-yl)pyrimidine-5-yl]-8-(methylamino)-2-oxo-1,2-dihydroquinoline-3-carboxamide-formate] | 6.99 | > 16 |  |
| CNc1cccc2cc(C(=O)Nc3cnc(N)s3)c(=O)[nH]c12.Cl [Example 25, N-(2-Amino-1,3-thiazol-5-yl)-8-(methylamino)-2-oxo-1,2-dihydroquinoline-3-carboxamide-hydrochloride] | 7.18 | > 16 |  |
| CNc1cccc2cc(C(=O)Nc3cncnc3)c(=O)[nH]c12 [Example 12, 8-(methylamino)-2-oxo-N-(pyrimidine-5-yl)-1,2-dihydroquinoline-3-carboxamide] |  | > 64 | 7.68 |
| CNc1cc(F)cc2cc(C(=O)Nc3ccc(C(=O)NCCN4CCOCC4)cc3CN(C)C3CCCCC3)c(=O)[nH]c12 [Example 75, N-(2-{[cyclohexyl(methyl)amino]methyl}-4-{[2-(morpholine-4-yl)ethyl]carbamoyl}phenyl)-6-fluoro-8-(methylamino)-2-oxo-1,2-dihydroquinoline-3-carboxamide] |  | 8 (≈ 13.5 µM) | 9.60 |
| CNc1cc(F)cc2cc(C(=O)Nc3ccc(C(=O)N(C)CCN4CCOCC4)cc3)c(=O)[nH]c12 [Example 67, 6-fluoro-8-(methylamino)-N-(4-{methyl[2-(morpholine-4-yl)ethyl]carbamoyl}phenyl)-2-oxo-1,2-dihydroquinoline-3-carboxamide] |  | > 16 | 8.20 |
